Results on one compound are retold here after US9567336B2, “Conjugated TLR7 and/or TLR8 and TLR2 agonists” (CAYLA, priority 2012, dated 2017).

Molecules are shown by their SMILES.

The target in one assay is T1, murine TLR7 (Mus musculus, UniProt P58681).
T1 construct: host or cells: HEK293 (HEK-Blue mTLR7)
T1 sequence (P58681 27-1050): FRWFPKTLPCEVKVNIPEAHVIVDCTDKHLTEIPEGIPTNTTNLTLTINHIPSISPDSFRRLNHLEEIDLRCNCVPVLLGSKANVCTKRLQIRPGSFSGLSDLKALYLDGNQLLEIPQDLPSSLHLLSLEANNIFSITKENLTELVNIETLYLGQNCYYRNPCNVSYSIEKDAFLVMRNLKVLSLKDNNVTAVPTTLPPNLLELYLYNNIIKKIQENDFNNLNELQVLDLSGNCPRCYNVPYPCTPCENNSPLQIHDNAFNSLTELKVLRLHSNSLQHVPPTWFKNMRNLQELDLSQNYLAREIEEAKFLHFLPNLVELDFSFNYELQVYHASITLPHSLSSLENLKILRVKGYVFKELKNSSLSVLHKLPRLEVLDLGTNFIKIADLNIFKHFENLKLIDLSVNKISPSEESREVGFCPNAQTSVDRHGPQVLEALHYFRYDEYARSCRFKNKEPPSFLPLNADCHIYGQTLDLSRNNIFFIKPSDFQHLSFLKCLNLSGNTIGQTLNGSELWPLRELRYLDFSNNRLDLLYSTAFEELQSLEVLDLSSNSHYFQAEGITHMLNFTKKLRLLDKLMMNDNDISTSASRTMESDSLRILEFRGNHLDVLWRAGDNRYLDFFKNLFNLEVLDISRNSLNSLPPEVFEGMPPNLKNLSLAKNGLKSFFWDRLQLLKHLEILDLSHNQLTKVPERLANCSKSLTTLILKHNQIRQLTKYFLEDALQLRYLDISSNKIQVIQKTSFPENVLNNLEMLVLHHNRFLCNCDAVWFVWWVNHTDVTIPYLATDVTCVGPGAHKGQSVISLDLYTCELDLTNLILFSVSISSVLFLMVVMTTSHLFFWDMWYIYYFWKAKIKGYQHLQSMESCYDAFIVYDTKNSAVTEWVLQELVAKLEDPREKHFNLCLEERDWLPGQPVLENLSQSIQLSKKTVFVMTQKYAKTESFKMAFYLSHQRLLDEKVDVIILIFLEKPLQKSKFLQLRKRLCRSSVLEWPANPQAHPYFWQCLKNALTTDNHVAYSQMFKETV
The assay can be described thus: HEK-Blue mTLR7 NF-κB/AP-1 SEAP reporter cell assay. The class given is cell-based. The conditions noted are these: HEK-Blue mTLR7 reporter cells, 10 μg/mL to 10 pg/ml, 24 hours, OD at 655 nm; FIGS. 2A, 2B. Here is the method: (§1) Some conjugated compounds of the invention were tested for their ability to activate TLR7 and TLR2 receptor signaling. Cell-based assays were carried out using TLR7 and TLR2 reporter cell lines (InvivoGen). The reporter cell lines are engineered HEK293 cells, a human embryonic kidney cell line (ATCC, CRL-1573) that stably express either murine TLR7 (HEK-Blue™ mTLR7) or human TLR7 (HEK-Blue™ hTLR7) or murine TLR2 (HEK-Blue™ mTLR2) or human TLR2 (HEK-Blue™ hTLR2) with an NF-κB-inducible secreted embryonic alkaline phosphatase (SEAP) as the reporter gene. The SEAP reporter gene is placed under the control of the NF-κB and AP-inducible promoter. Stimulation with the corresponding TLR ligand activates NF-κB and AP-1, which induces the production of SEAP. Detection of SEAP is measured following culturing cells in HEK-Blue™ Detection media (InvivoGen). HEK-Blue™ Detection contains a SEAP substrate, which upon hydrolysis by SEAP produces a colorimetric change allowing for detection of SEAP as the protein is secreted. […] These assays were carried out using RAW-Blue™ Cells (InvivoGen), derived from RAW 264.7 mouse leukemic monocytic macrophage cell line (ATCC, CRL 2278) stably overexpressing a NF-κB/AP-1 inducible SEAP reporter constructs.
(§2) To perform the assay, cells were seeded on 96 well microliter plates at 50,000 or 100,000 cells per well for HEK-Blue™ Cells and RAW-Blue™ Cells respectively, and cultured at 37° C. in the presence of the conjugated compounds. The conjugated compounds were prepared as follows: First, stock solutions of the small molecule conjugated compounds of the invention were prepared in ethanol or water to a concentration of 10 mg/ml. A working dilution of the conjugated TLR7-TLR2 small molecules was made up in water and added to cells at a final range of concentrations from 10 μg/mL to 10 pg/ml. The working dilutions of the conjugated TLR7-TLR2 small molecules as the stated concentrations were directly added to the reporter cell lines and incubated at 37° C. for 24 hours. After 24 hours of incubation, the effect on reporter gene activity was determined by reading the OD at 655 nm using iMark™ Microplate Reader (BIO-RAD).
(§3) The conjugated compounds were tested alone for their ability to specifically activate TLR7 and TLR2, alongside the known TLR7 activators R848 or CL264 (InvivoGen) and the TLR2 agonists Pam2CSK4 or Pam3CSK4 (InvivoGen). The specificity of the TLR activity was determined by use of reporter cell lines to the other TLRs (data not shown). […] The molecules show a tendency to activate mouse TLR7 with greater sensitivity than human TLR7. […] Furthermore, dose-dependent responses of the conjugated compounds indicate significant TLR activities of TLR7 and TLR2 compared to the corresponding controls.

The target in another assay is T2, murine TLR2 (Mus musculus, UniProt Q9QUN7).
T2 construct: host or cells: HEK293 (HEK-Blue mTLR2)
T2 sequence (Q9QUN7 25-784): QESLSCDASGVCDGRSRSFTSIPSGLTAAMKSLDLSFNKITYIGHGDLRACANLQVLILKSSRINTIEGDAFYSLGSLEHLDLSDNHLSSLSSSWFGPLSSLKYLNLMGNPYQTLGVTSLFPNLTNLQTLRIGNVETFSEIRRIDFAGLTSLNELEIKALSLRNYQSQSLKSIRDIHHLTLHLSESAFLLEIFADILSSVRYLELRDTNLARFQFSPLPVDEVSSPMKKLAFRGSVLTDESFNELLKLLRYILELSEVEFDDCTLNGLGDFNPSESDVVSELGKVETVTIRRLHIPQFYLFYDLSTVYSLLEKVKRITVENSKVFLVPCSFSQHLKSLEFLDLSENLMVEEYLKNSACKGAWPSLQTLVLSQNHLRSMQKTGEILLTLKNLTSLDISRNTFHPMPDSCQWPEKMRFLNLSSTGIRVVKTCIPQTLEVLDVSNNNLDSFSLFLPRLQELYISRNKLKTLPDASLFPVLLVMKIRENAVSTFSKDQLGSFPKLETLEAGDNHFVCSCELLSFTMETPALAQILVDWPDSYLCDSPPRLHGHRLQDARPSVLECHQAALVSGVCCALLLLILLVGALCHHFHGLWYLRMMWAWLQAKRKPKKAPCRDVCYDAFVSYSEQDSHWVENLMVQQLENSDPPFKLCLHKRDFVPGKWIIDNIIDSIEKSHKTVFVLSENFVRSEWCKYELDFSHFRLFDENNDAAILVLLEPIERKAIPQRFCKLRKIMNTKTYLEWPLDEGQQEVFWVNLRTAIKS
The assay can be described thus: HEK-Blue mTLR2 NF-κB/AP-1 SEAP reporter cell assay. Type of assay: cell-based. The conditions noted are these: HEK-Blue mTLR2 reporter cells, 10 μg/mL to 10 pg/ml, 24 hours, OD at 655 nm; FIG. 4. How it is done: as §1, §2, §3

`CCCCCCCCCCCCCCCC(=O)OCC(CSC[C@H](N)C(=O)Nc1ccc(Cn2c(O)nc3c(N)nc(NCCCC)nc32)cc1)OC(=O)CCCCCCCCCCCCCCC` (mixture of isomers) [CL401, (R)-3-(2-amino-3-(4-((6-amino-2-(butylamino)-8-hydroxy-9H-purin-9-yl)methyl)phenylamino)-3-oxopropylthio)propane-1,2-diyl dipalmitate]: on murine TLR7, the “ability to activate TLR7 receptors (murine TLR7)” value is “activate TLR7 receptors”. On murine TLR2, the “ability to activate TLR2 receptor (murine TLR2)” value is “activate TLR2 receptor”.
